# Read-outs that look alike come from different tables or passages of the source.
# Assays:
# [1] = Bioavailability test, oral suspensions in beagle dogs; assay type: in vivo; conditions: oral suspension in CMC-Na, 5 mg/kg (as compound of Formula I); for Cmax: plasma concentration of compound of Formula I by LC-MS; for AUC0-t: sampling to 48 h
# Method: Study procedure: Fifteen beagle dogs (7.4˜9.4 kg body weight) were randomly divided into 5 groups, and administered orally suspensions of the compound of Formula I, the maleate, citrate, oxalate and acetate thereof (calculated according to the amount of the compound of Formula I) in CMC-Na (carboxymethylcellulose sodium) at a dosage of 5 mg/kg body weight, respectively.
# Chromatographic conditions: methanol as mobile phase A and a 0.1% (v/v) aqueous solution of formic acid as mobile phase B, an isocratic elution A:B=52:48; 0.2 mL/min of a flow rate; 35° C. of column temperature; and SHIMADZU Shim-pack VP-ODS C18 (5.0 μm, 150 mm×2.0 mm I.D., Shimadzu Corporation) as chromatographic column.
# Mass spectrometry conditions: ion source: ESI ionization source, scanning in SIM mode, 250° C. of curved desolventizer (CDL) temperature, 200° C. of heating block temperature; 25V of CDL voltage; +1.60 kV of detection voltage; 1.5 L/min of atomization gas flow rate; 2.0 L/min of dry gas flow rate.
# [2] = system: NCI-H1975, a human non-small cell lung cancer cell; assay: Anchorage-independent cell proliferation assay, NCI-H1975; assay type: cell-based; conditions: NCI-H1975, 168 h, soft agarose, 7 days treatment, CellTiter-Blue
# Method: (§1) NCI-H1975, a human non-small cell lung cancer cell, and BT474, a human breast cancer cell line, were cultured in RPIM-1640 or DMEM culture medium supplemented with 10% fetal bovine serum (FBS) in a cell incubator (37° C., 5% CO2). In the test of the compound, culture plates were pre-coated with 0.6% medium, and the cells were resuspended with 0.3% low-melting-point agarose, and then seeded in a 96-well plate at a density of 10,000 cells per well (100 μL). The compound was diluted at a 3-fold gradient, starting from 10 mM. For each of concentration, 2 μL of the solution was taken, and added to 98 μL of culture medium, and then 5.3 μL of the mixture was added to the cell culture medium (0.1% of DMSO final concentration, v/v). After the treatment for one week (7 days), 20 μL of CellTiter-Blue® (Promega) reagent was added, and incubated at 37° C. for 4 hours. Fluorescence signals were read on Envison (Perkin Elmer), and IC50 values of the compound for inhibiting cell proliferation were calculated using GraphPad Prism 5.0.
# [3] = system: BT474, a human breast cancer cell line; assay: Anchorage-independent cell proliferation assay, BT474; assay type: cell-based; conditions: BT-474, 168 h, soft agarose, 7 days treatment, CellTiter-Blue
# Method: as §1
Compound,CL/F ([1]; plasma),T1/2 ([1]; plasma),Tmax ([1]; plasma),Cmax [1],AUC0-t ([1]; plasma),IC50 [2],"Vd/F ([1]; dog, plasma)","half-life ([1]; dog, plasma)","Cmax ([1]; dog, read-out: Cmax)","CL/F ([1]; dog, plasma, read-out: CL/F (converted))","Tmax ([1]; dog, plasma, read-out: Tmax)","AUC0-t ([1]; dog, plasma, read-out: AUC0-t)",IC50 [3]
CC(=O)O [Acetate],55.2 mL/min/kg,9.41 h,3.33 h,2080 ng/mL,20350 ng·h/mL,–,–,–,–,–,–,–,–
"C=CC(=O)N1CCC(Nc2cc3c(Nc4ccc(F)c(Cl)c4)ncnc3cc2OC)CC1 [Example 1, N^6-(1-acryloylpiperidin-4-yl)-N^4-(3-chloro-4-fluorophenyl)-7-methoxyquinazoline-4,6-diamine]",–,–,–,–,–,14 nM,0.78 ± 1.08 L/kg,5.13 ± 2.85 h,2820 ± 2830 ng/mL,77.8 mL/min/kg,3.17 ± 4.19 h,42100 ng·h/mL,2.1 nM
Citrate,72 mL/min/kg,4.48 h,1.33 h,1290 ng/mL,10760 ng·h/mL,–,–,–,–,–,–,–,–
Oxalate,23.2 mL/min/kg,9.38 h,1.50 h,3590 ng/mL,53200 ng·h/mL,–,–,–,–,–,–,–,–

# Reference: US10231973B2, “Salts of quinazoline derivative and method for preparing the same” (CHIA TAI TIANQING PHARMACEUTICAL GROUP CO., LTD., priority 2015, dated 2019)
